Laboratory results as given in patent publication US20100249234A1, “METHODS OF REDUCING VIRULENCE IN BACTERIA” (UWM RESEARCH FOUNDATION, INC., priority 2007, published 2010).

Experiments:
Type in all cases: cell-based, Dickeya dadantii 3937 (Ech3937)
mrp promoter = assay: mrp (reference gene) promoter activity, GFP reporter pmrp, flow cytometry (FACS); details: for GFP intensity (Mean Fluorescence Intensity) of Ech3937 (pmrp): reference gene
Procedure: (§1) FACS analysis of promoter activity of dspE, hrpA, hrpL, hrpN, and hrpS was carried out as described (Peng et al., 2006). Briefly, the wild-type Ech3937 and the mutant strains carrying the promoter reporter plasmid were grown on LB broth at 28° C. overnight and transferred to appropriate media. For FACS analysis, samples were collected by centrifugation, washed with 1× phosphate buffer saline (PBS) at 13,000 rpm for 1 min, and re-suspended in 1×PBS to ca 10^6 CFU/ml prior to being run in a FACS Calibur flow cytometer (BD Biosciences, CA). Three replicates were performed for each treatment.
(§2) Since OCA and TCA induced the expression of hrpN, the effect of these two phenolic compounds on the expression of hrpA, hrpL, and hrpS was investigated further. […] GFP intensity was determined on gated populations of bacterial cells by flow cytometry and analyzed with the Cell Quest software (BD Biosciences, San Jose, Calif.). The lines labeled “1” stand for the GFP expression control base level of the Ech3937 containing pPROBE-AT vector; lines labeled “2” stand for the promoter activity of hrpS, hrpL, hrpA and hrpN in Ech3937 in MM; lines labeled “3” stand for the promoter activity of Ech3937 in MM supplemented with 0.1 mM OCA; lines labeled “4” stand for the promoter activity of hrpL mutant WPP96 in MM; lines labeled “5” stand for the promoter activity of hrpL mutant WPP96 in MM supplemented with 0.1 mM OCA. Values are representative of at least two experiments. […] Compared with MM alone, the average GFP fluorescence intensity of bacterial cells of Ech3937 (phrpA) was doubled when 0.1 mM of OCA and TCA were added to the medium (Table 4; FIG. 3). […] The mrp, whose protein product has an ATPase conserved domain (2e-06), was used as a reference gene in this study.

rsmB mRNA = assay: qRT-PCR relative mRNA level of rsmB
Procedure: (§3) Bacterial strains were grown in MM. Total RNA from the bacterial cells was isolated by using the TRI reagent method (Sigma, Mo.) and treated with Turbo DNA-free DNase kits (Ambion, TX) as described (Peng et al., 2006). An iScript cDNA Synthesis Kit (Bio-Rad, CA) was used to synthesize cDNA from 0.5 μg of treated total RNA. The Real Master Mix (Eppendorf, Westbury, N.Y.) was used for qRT-PCR reaction to quantify the cDNA level of target genes in different samples. The rplU was used as the endogenous control for data analysis. qRT-PCR data were analyzed using Relative Expression Software Tool as described (Pfaffl, M. W., Horgan, G. W., and Dempfle, L. (2002) Relative expression software tool (REST) for group-wise comparison and statistical analysis of relative expression results in real-time PCR. Nucleic Acids Res 30:e36.).

pPROBE-AT vector = assay: GFP expression control base level, pPROBE-AT vector, flow cytometry (FACS)
Procedure: as §1, §2

hrpA mRNA = assay: qRT-PCR relative mRNA level of hrpA
Procedure: as §3

hrpS mRNA = assay: qRT-PCR relative mRNA level of hrpS
Procedure: as §3

Ech3937 = assay: Growth of Ech3937 in MM supplemented with compound
Source text: Phenolic compounds constitute an important class of organic substances produced by plants. The phenolic compound SA is a signaling molecule that plays a role in host defenses. OCA and TCA are the biosynthetic precursors of SA and are also reported to induce the expression of defense-related genes in plants. OCA, TCA, and SA were examined to elucidate their effects on the expression of T3SS genes. The expression of the T3SS gene hrpN was examined in MM and MM supplemented with OCA, TCA, and SA, at concentrations of 0.05, 0.1, and 0.2 mM, respectively. FIGS. 2A and 2B show the promoter activities of hrpN in Dickeya dadantii 3937 (Ech3937) grown in MM and MM supplemented with 0.05, 0.1, and 0.2 mM OCA, TCA, and SA at 12 h (FIG. 2A) and 24 h (FIG. 2B) post-inoculation. GFP intensity was determined on gated populations of bacterial cells by flow cytometry and analyzed with the Cell Quest software (BD Biosciences, San Jose, Calif.). The growth of Ech3937 in MM supplemented with different concentrations of OCA, TCA and SA was recorded. Compared with MM alone, the average GFP fluorescence intensity of bacterial cells of Ech3937 (phrpN) was increased approximately 4-fold when 0.05 mM of OCA and TCA were added to the medium (FIGS. 2A, 2B).
The expression of the T3SS gene hrpA was further examined in MM and MM supplemented with PCA at concentrations of 0.001, 0.005, 0.01, 0.05 and 0.1 mM respectively. FIGS. 16A and 16B show the promoter activities of hrpA in Dickeya dadantii 3937 (Ech3937) grown in minimum medium (MM) and MM supplemented with different amount of p-coumaric acid (PCA) at 12 h (FIG. 16A) and 24 h (FIG. 16B) post-inoculation. GFP intensity was determined on gated populations of bacterial cells by flow cytometry and analyzed with the Cell Quest software (BD Biosciences, San Jose, Calif.). The growth of Ech3937 in MM supplemented with different concentrations of PCA was recorded. Compared with MM alone, the average GFP fluorescence intensity of bacterial cells of Ech3937 (phrpA) was reduced more than 4-fold when 0.05 and 0.1 mM of PCA were added to the medium (FIGS. 16A, 16B).

[1] = MM + 0.1 mM compound, 12 h (Table 4)
[2] = MM + 0.1 mM PCA, 12 h (Table 10)
[3] = MM + 0.1 mM PCA, 24 h (Table 10)

Row | Structure (SMILES) | mrp expression in Ech3937 (pmrp) compared with MM (mrp promoter; MM + 0.1 mM compound, 12 h) | GFP intensity (Mean Fluorescence Intensity) of Ech3937 (pmrp) (mrp promoter; [1]) | rsmB mRNA relative expression ratio (rsmB mRNA; Ech3937 in supplemented MM vs MM alone (normalized to 1)) | GFP intensity (Mean Fluorescence Intensity) of Ech3937 (pPROBE-AT) (pPROBE-AT vector; MM + 0.1 mM OCA, 6 h) | GFP intensity (Mean Fluorescence Intensity) of Ech3937 (pPROBE-AT) (pPROBE-AT vector; MM + 0.1 mM OCA, 12 h) | GFP intensity (Mean Fluorescence Intensity) of Ech3937 (pPROBE-AT) (pPROBE-AT vector; MM + 0.1 mM OCA, 24 h) | GFP intensity (Mean Fluorescence Intensity) of Ech3937 (pPROBE-AT) (pPROBE-AT vector; [1]) | hrpA mRNA compared with MM alone (qRT-PCR) (hrpA mRNA; MM supplemented with 0.1 mM OCA (FIG. 4)) | hrpS gene expression, MM vs supplemented MM (qRT-PCR) (hrpS mRNA; MM supplemented with OCA, p>0.5 (FIG. 4)) | bacterial growth of Ech3937 in supplemented MM (Ech3937; 0.05, 0.1 and 0.2 mM in MM (FIGS. 2A, 2B)) | GFP intensity (Mean Fluorescence Intensity) of Ech3937 (pmrp) (mrp promoter; [2]) | GFP intensity (Mean Fluorescence Intensity) of Ech3937 (pmrp) (mrp promoter; [3]) | rsmB gene expression, MM vs supplemented MM (qRT-PCR) (rsmB mRNA; MM supplemented with PCA, p=0.928 (FIG. 14)) | GFP intensity (Mean Fluorescence Intensity) of Ech3937 (pPROBE-AT) (pPROBE-AT vector; [2]) | GFP intensity (Mean Fluorescence Intensity) of Ech3937 (pPROBE-AT) (pPROBE-AT vector; MM + 0.1 mM PCA, 12 h (Table 11)) | GFP intensity (Mean Fluorescence Intensity) of Ech3937 (pPROBE-AT) (pPROBE-AT vector; [3]) | GFP intensity (Mean Fluorescence Intensity) of Ech3937 (pPROBE-AT) (pPROBE-AT vector; MM + 0.1 mM PCA, 24 h (Table 11)) | hrpA mRNA compared with MM alone (normalized to 1), qRT-PCR (hrpA mRNA; 0.1 mM PCA, P=0.001 (FIG. 14)) | hrpS mRNA relative expression ratio (hrpS mRNA; MM supplemented with PCA vs MM alone (normalized to 1), P=0.001) | bacterial growth of Ech3937 in MM with PCA (Ech3937; PCA 0.001 to 0.1 mM in MM (FIGS. 16A, 16B))
1 | O=C(O)/C=C/c1ccccc1O [OCA, o-coumaric acid] | slightly higher mrp expression | 97.7 ± 1.6 | 1.4 | 2.0 ± 0 | 2.0 ± 0 | 1.9 ± 0 | 2.0 ± 0 | significantly higher amount | No significant difference | No reduction of bacterial growth |  |  |  |  |  |  |  |  |  | 
2 | O=C(O)/C=C/c1ccc(O)cc1 [PCA, p-coumaric acid] |  |  |  |  |  |  |  |  |  |  | 124.1 ± 2.7 | 98.9 ± 1.0 | No significant difference | 2.2 ± 0.2 | 2.3 ± 0.1 | 14.0 ± 10.1 | 4.9 ± 0.1 | significantly lower amount of mRNA | 0.223 | Inhibition of bacterial growth was not observed
